The values that follow come from US7005424B2, “Nucleic acid encoding an E1A gene product sensitizes HER-2/neu overexpressing cancer cells to chemotherapy” (priority 1996, dated 2006).

Structures are written as SMILES. Starred links: 1 amine or outer side, 2 acyl side, 3 side chain; linkers in the order of their positions; H or OH if unused. Positions of bridges follow the written chain, without caps; N, C: chain ends. Non-standard residues stand in square brackets, D forms with d. Residues, ends and D or L forms follow the SMILES beside them. Chains are numbered I, II in the order given. Actinocin(9to1) = Cc1c2oc3c(C)ccc(C(=O)[*:1])c3nc-2c(C(=O)[*:2])c(N)c1=O; NMeV = CN[C@H](C(=O)O)C(C)C; Sar = CNCC(=O)O

For data set [1] the following is noted: in vivo; cited from earlier work.
The subject of another data set is B.E1A1.Hy. The data set can be described thus: MTT assay, taxol on rat fibroblasts with various neu and E1A expression. Format: cell-based. The following applies: taxol 0.1–10 μM; compared with B104-1-1, B.neo, B.E1A1.D1. The protocol:
FIG. 30B. Effect of taxol (0.01–100 μM) on the cell growth of rat fibroblast with various HER-2/neu and E1A expression. […] Bars, SD.
In order to examine the effects of taxol on cell growth rat fibroblasts with various neu and E1A expression were grown in varying concentrations of taxol 0.01–100 μM. The cell lysates were subsequently run through 8% SDS-PAge and blotted with anti-p185 and anti-E1A antibodies (FIG. 30A). The effects on cell growth were measured using the MTT assay as described earlier.

The next data set concerns MDA-MB-435 cells. Kind of data set: MTT assay, Ad.E1A and Taxol. Format: cell-based. As to conditions: low neu expressing cells. The protocol:
The percentage of cell growth was calculated by defining the absorption of cells not treated with taxol or E1A as 100%. Bars, SD.
FIG. 34. […] The percentage of cell growth was calculated by defining the absorption of cells not treated with taxol or E1A as 100%. Bars, SD.
Taxol was given from 0.1 μM to 100 μM (FIGS. 33B and 33D).

As for `Cc1c2oc3c(C)ccc(C(=O)N[C@@H]4C(=O)N[C@H](C(C)C)C(=O)N5CCC[C@H]5C(=O)N(C)CC(=O)N(C)[C@@H](C(C)C)C(=O)O[C@@H]4C)c3nc-2c(C(=O)N[C@@H]2C(=O)N[C@H](C(C)C)C(=O)N3CCC[C@H]3C(=O)N(C)CC(=O)N(C)[C@@H](C(C)C)C(=O)O[C@@H]2C)c(N)c1=O` [Actinomycin D] (I: T[dV]P[Sar][NMeV] / II: T[dV]P[Sar][NMeV]; ester I:1-I:C, II:1-II:C; linker I:N-II:N via Actinocin(9to1)), the “dose excreted or detected intact in the urine” value in data set [1] is listed as 10%.
Regarding `CC[C@]1(O)C[C@@H]2CN(CCc3c([nH]c4ccccc34)[C@@](C(=O)OC)(c3cc4c(cc3OC)N(C)[C@H]3[C@@](O)(C(=O)OC)[C@H](OC(C)=O)[C@]5(CC)C=CCN6CC[C@]43[C@@H]65)C2)C1` [Vinblastine], the “dose excreted or detected intact in the urine” value in data set [1] is “Approximately 15%”.
On to `CC(=O)O[C@H]1C(=O)[C@@]2(C)[C@H]([C@H](OC(=O)c3ccccc3)[C@]3(O)C[C@H](OC(=O)[C@H](O)[C@@H](NC(=O)c4ccccc4)c4ccccc4)C(C)=C1C3(C)C)[C@]1(OC(C)=O)CO[C@@H]1C[C@@H]2O` [Taxol], for which the “inhibition of cell growth (MTT)” value in the data set on B.E1A1.Hy was “highest inhibition of cell growth”. The “sensitivity to taxol alone” value in the data set with MDA-MB-435 cells was “more sensitive to taxol alone”.
